{"source": "paper PMC8621674", "about": "“Formulation and In Vivo Evaluation of a Solid Self-Emulsifying Drug Delivery System Using Oily Liquid Tocotrienols as Model Active Substance” (Pharmaceutics, 2021)", "origin": "cited, not measured here", "conditions": "no reference given", "data": [{"substance": "caprylocaproyl macrogol-8 glycerides [Labrasol®]", "values": [{"measurement": "HLB value", "value": 12}]}, {"substance": "poloxamer 188", "values": [{"measurement": "HLB value", "value": 29}]}]}
